SMILES strings stand for the structures.

In patent publication US20060014806A1 (published 2006) one finds melting point data, which are given here for three molecules.

In general, melting point refers to the temperature of the solid-liquid transition.

In turn, `COC(=O)NCC#Cc1ccc(OCCCOc2c(Cl)cc(OCC=C(Cl)Cl)cc2Cl)cc1` returned a melting point of 78 to 81 °C.

The molecule `CC(C)NC(=O)/C(C#N)=C/c1ccc(OCCCOc2c(Cl)cc(OCC=C(Cl)Cl)cc2Cl)cc1` displayed a melting point of 88 to 93 °C.

Consider `CO/N=C1/C=C(c2ccc(OCCCOc3c(Cl)cc(OCC=C(Cl)Cl)cc3Cl)cc2)CC1`, for which the melting point fell in the range of 100 to 103 °C.
